Data from PMC9229564 (Viruses, 2022).
Entries after “also recorded” stand apart in the source; their conditions may differ. Like-named read-outs stand apart in the source and are kept apart here.

Legend:
[1] = tested on: CHIKV; settings: previous work; cited from earlier work
[2] = molecular target: human SK1 (Homo sapiens, UniProt Q9NYA1); test: SK1 inhibition (Ki); format: biochemical
[3] = tested on: CHIKV; test: CHIKV infection of HeLa cells, immunofluorescence high-content imaging; format: cell-based, Chikungunya virus (clone 181/25); settings: for inhibition of CHIKV infection (nsP3 expression), screen: 20 µM, cutoff at least 50% inhibition with at least 75% cell viability; for EC50: HeLa cells, CHIKV infection, increasing concentration of inhibitor
[4] = molecular target: T1, human SK2 (Homo sapiens, UniProt Q9NRA0); test: SK2 inhibition (Ki); format: biochemical
T1 sequence (Q9NRA0 1-654): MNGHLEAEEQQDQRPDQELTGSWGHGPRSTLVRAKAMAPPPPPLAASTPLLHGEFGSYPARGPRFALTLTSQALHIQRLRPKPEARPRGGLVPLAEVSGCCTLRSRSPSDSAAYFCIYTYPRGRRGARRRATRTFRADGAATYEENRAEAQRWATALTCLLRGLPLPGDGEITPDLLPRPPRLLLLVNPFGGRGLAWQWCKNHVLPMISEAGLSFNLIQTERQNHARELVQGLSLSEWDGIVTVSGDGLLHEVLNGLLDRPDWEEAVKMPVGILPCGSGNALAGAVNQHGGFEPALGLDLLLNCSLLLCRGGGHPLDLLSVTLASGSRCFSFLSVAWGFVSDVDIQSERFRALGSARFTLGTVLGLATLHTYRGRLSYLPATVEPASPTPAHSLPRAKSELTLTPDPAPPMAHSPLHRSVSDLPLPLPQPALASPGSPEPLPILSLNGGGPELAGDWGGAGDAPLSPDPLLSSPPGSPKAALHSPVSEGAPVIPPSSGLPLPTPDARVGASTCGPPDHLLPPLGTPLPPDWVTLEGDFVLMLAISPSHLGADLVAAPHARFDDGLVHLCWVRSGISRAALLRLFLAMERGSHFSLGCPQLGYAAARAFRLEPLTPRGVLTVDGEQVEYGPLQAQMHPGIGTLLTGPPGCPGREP

[5] = tested on: SK1 and SK2; parameters: method as in earlier work; settings: yeast assay; more potent at SK1 than SK2; cited from earlier work
[6] = tested on: CHIKV; test: qRT-PCR of viral nsP1 expression in CHIKV-infected HeLa cells; format: cell-based, Chikungunya virus (clone 181/25); settings: 20 µM, 1 h pre-treatment, MOI 1, 24 h
[7] = tested on: HeLa cells; test: virus-free cell viability assay; format: cell-based
[8] = tested on: CHIKV; test: plaque assay of infectious virus release (supernatants on Vero E6 cells); format: cell-based, Chikungunya virus (clone 181/25); settings: 25 µM, supernatant 24 h post-infection, plaques on Vero E6 over 72 h
[9] = 1 h pre-treatment, HeLa, MOI = 1, 24 h

Sequence of human SK1 (Q9NYA1 whole entry): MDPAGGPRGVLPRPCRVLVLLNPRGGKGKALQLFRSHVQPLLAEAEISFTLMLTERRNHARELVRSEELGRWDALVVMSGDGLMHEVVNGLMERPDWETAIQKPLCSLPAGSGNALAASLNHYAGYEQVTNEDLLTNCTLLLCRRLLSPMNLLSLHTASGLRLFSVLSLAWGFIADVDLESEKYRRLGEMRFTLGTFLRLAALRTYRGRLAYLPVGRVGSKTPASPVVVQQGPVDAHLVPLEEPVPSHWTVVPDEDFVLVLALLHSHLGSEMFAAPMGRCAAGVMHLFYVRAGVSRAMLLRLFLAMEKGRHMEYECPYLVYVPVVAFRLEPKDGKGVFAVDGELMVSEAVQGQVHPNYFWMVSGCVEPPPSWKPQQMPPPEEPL

| Compound | Ki ([2]; read-out: SK1 Ki) | inhibition of CHIKV infection (nsP3 expression), screen [3, 9] | EC50 ([3]; Chikungunya virus, HeLa) | Ki ([4]; read-out: SK2 Ki) | other results |
| --- | --- | --- | --- | --- | --- |
| O=C(NCc1ccncc1)C12CC3CC(C1)CC(c1ccc(Cl)cc1)(C3)C2 [ABC294640] | – | – | – | – | timing of effective inhibition of CHIKV infection [1]: most effective at inhibiting CHIKV infection |
| N=C(N)N1CCC[C@H]1Cc1nc(-c2ccc(Oc3nc(Br)cs3)cc2)no1 [SLC4091425] | > 3 µM | significantly inhibited CHIKV infection | 3.35 µM | > 3 µM | – |
| CCCCCOc1ccc2cc(-c3noc([C@@H]4[C@@H](O)CCN4C(=N)N)n3)ccc2c1 [SLC5111312] | – | significantly inhibited CHIKV infection | 11.8 µM | – | potency at SK1 relative to SK2 [5]: 2 fold; Ki [2]: 0.36 ± 0.09 µM; Ki [4]: 0.33 ± 0.07 µM |
| CCCCCCCCCCCCc1ccc(CN(C)C2CCCC2O)cc1 (stereo not drawn) [SLL3041783] | 2.4 ± 0.61 µM | significantly inhibited CHIKV infection | 3.33 µM | > 3 µM | – |
| CCCCCCCCCCCCc1ccc(CN2CCCC2CO)cc1 (stereo not drawn) [SLL3071511] | – | significantly inhibited CHIKV infection | 2.9 µM | 0.66 ± 0.11 µM | viral glycoprotein (E2) expression ([3]; 1 h pre-treatment, HeLa, MOI = 1, 24 h, Supplementary Figure S3): decreased; EC50 [3]: 2.91 µM; anti-CHIKV activity at higher MOI ([3]; HeLa, MOI = 10, 24 h): retained significant anti-CHIKV activity; timing of effective inhibition of CHIKV infection ([3]; treatment 1 h before, along with or 1 h after infection, MOI 1): highest inhibitory effect occurring when the compound is used prior to infection; also recorded: maximal inhibition occurring when SLL3071511 is added prior to infection; viral nsP1 expression [6]: significantly diminished; non-toxic concentration [7]: up to 50 µM; plaque counts (infectious virus release) [8]: significantly diminished |
